Test results reported in US10745384B2, “Indazole derivatives as αv integrin antagonists” (BRISTOL-MYERS SQUIBB COMPANY, priority 2016, dated 2020).
Where a name gives a salt, the structure may show the parent alone.

Molecular target: T1, human αVβ6 (Homo sapiens, UniProt P06756+P18564)
T1 construct: purchased R & D systems 3817-AV
Assay: human αVβ6 HTRF binding assay
Conditions: recombinant human αVβ6 integrin, FITC-conjugated fibronectin
Description: All binding assays used the HTRF (homogeneous time resolved fluorescence) technology from Cisbio International, therefore all assays are described as HTRF binding assays. The assay results for the Examples are listed above together with the characterization data. The HTRF binding assays are established for the following integrins: human αVβ6, human αVβ1, human αVβ3, human αVβ5, and human αVβ8. All assays used the following assay buffer: 20 mM Tris, pH 7.4, 1 mM MgCl2, 1 mM MnCl2, 0.01% Tween 20, and 0.01% BSA. Alternatively, a SPA-based assay was used for evaluation of receptor binding.
The following describes the components and a representative procedure for the human αVβ6 HTRF binding assay: Recombinant human αVβ6 Integrin (R & D systems, 3817-AV) was biotinylated. Biotinylated human αVβ6 Integrin was added to assay vessel at a final concentration of 1.25 nM. FITC-conjugated fibronectin (Cytoskeleton, FNR02) was then added at the final concentration of 5 nM. The mixture was centrifuged at 600 rpm for three minutes using Thermo Fisher Heraeus Multifuge X3 centrifuge and then incubated at room temperature for an hour. Streptavidin Terbium (Cisbio international 610STLB) was then added at the final concentration of 0.625 nM. The resulting mixture was centrifuged at 600 rpm for three minutes using Thermo Fisher Heraeus Multifuge X3 centrifuge and then incubated at room temperature overnight in dark before reading HTRF signals. […]

T1 sequence (P06756 31-992 limits assumed): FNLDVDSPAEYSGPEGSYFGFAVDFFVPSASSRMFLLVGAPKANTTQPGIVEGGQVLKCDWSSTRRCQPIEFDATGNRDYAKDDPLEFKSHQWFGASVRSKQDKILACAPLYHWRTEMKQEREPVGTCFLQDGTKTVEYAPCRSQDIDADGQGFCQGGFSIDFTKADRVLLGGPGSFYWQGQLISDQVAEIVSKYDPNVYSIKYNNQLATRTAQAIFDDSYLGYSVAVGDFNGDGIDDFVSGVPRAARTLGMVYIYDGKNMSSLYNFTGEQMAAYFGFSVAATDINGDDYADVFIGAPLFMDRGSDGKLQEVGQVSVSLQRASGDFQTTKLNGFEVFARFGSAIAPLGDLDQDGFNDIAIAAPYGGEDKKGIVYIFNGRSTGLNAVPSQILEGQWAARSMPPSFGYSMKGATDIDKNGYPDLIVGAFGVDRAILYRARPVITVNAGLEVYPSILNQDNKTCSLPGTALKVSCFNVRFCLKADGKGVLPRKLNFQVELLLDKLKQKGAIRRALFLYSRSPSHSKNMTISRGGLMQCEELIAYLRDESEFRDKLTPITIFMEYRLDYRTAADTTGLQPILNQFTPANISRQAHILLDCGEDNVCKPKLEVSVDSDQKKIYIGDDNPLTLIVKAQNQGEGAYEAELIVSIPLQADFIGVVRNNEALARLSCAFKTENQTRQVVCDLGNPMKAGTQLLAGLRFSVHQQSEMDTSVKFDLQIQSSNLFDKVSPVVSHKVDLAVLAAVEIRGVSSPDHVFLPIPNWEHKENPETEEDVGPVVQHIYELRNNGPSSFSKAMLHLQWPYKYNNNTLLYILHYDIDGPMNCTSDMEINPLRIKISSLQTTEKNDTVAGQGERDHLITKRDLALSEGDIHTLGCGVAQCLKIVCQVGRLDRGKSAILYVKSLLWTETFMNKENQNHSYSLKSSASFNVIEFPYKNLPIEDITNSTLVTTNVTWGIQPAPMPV
T1 sequence (P18564 22-707 limits assumed): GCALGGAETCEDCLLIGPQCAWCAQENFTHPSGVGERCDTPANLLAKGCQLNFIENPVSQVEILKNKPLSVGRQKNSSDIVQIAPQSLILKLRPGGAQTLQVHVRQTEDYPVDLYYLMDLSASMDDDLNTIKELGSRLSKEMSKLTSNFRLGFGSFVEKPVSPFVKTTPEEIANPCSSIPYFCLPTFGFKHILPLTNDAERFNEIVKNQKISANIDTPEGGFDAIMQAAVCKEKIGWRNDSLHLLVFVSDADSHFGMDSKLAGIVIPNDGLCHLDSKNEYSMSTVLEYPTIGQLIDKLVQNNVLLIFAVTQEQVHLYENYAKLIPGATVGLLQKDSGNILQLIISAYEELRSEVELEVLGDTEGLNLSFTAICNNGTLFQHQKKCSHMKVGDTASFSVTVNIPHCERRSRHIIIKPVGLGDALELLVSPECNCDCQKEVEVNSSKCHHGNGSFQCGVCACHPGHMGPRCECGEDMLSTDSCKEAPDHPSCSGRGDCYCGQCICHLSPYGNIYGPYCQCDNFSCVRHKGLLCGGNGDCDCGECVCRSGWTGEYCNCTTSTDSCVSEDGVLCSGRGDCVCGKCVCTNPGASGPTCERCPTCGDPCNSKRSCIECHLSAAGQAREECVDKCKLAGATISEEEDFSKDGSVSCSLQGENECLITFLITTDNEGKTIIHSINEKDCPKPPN

IC50 [nM]	SMILES
1200	O=C(O)CC(c1ccc2c(c1)oc1ccccc12)n1ncc2c(OCCc3ccc4c(n3)NCCC4)cccc21 (stereo not drawn) [Example 30, 3-(Dibenzo[b,d]furan-3-yl)-3-(4-(2-(5,6,7,8-tetrahydro-1,8-naphthyridin-2-yl)ethoxy)-1H-indazol-1-yl)propanoic acid]
3300	O=C(O)CC(CCC(F)(F)F)n1ncc2c(CCCc3ccc4c(n3)NCCC4)cccc21 (stereo not drawn) [Example 31, 6,6,6-Trifluoro-3-(4-(3-(5,6,7,8-tetrahydro-1,8-naphthyridin-2-yl)propyl)-1H-indazol-1-yl)hexanoic acid]
1300	O=C(O)CC(c1cc(Cl)cc(Cl)c1)n1ncc2c(OCCc3ccc4c(n3)NCCC4)cccc21 (stereo not drawn) [Example 32, 3-(3,5-Dichlorophenyl)-3-(4-(2-(5,6,7,8-tetrahydro-1,8-naphthyridin-2-yl)ethoxy)-1H-indazol-1-yl)propanoic acid]
1600	O=C(O)CC(c1cnc2ccccc2n1)n1ncc2c(OCCc3ccc4c(n3)NCCC4)cccc21 (stereo not drawn) [Example 33, 3-(Quinoxalin-2-yl)-3-(4-(2-(5,6,7,8-tetrahydro-1,8-naphthyridin-2-yl)ethoxy)-1H-indazol-1-yl)propanoic acid]
17	CN(C)C(=O)c1cccc(C(CC(=O)O)n2ncc3cc(OCCc4ccc5c(n4)NCCC5)ccc32)c1 (stereo not drawn) [Example 35, 3-(3-(Dimethylcarbamoyl)phenyl)-3-(5-(2-(5,6,7,8-tetrahydro-1,8-naphthyridin-2-yl)ethoxy)-1H-indazol-1-yl)propanoic acid]
77	O=C(N[C@@H](Cn1ncc2cc(CCCc3ccc4c(n3)NCCC4)ccc21)C(=O)O)OCc1ccccc1 [Example 36, (S)-2-(((Benzyloxy)carbonyl)amino)-3-(5-(3-(5,6,7,8-tetrahydro-1,8-naphthyridin-2-yl)propyl)-1H-indazol-1-yl)propanoic acid]
1100	CN(C)C(=O)c1cccc([C@@H](CC(=O)O)n2ncc3cc(OCCc4ccc5c(n4)NCCC5)ccc32)c1 [Example 37, (R)-3-(3-(Dimethylcarbamoyl)phenyl)-3-(5-(2-(5,6,7,8-tetrahydro-1,8-naphthyridin-2-yl)ethoxy)-1H-indazol-1-yl)propanoic acid]
4.2	CN(C)C(=O)c1cccc([C@H](CC(=O)O)n2ncc3cc(OCCc4ccc5c(n4)NCCC5)ccc32)c1 [Example 38, (S)-3-(3-(Dimethylcarbamoyl)phenyl)-3-(5-(2-(5,6,7,8-tetrahydro-1,8-naphthyridin-2-yl)ethoxy)-1H-indazol-1-yl)propanoic acid]
340	O=C(NC(Cn1ncc2c(OCCc3ccc4c(n3)NCCC4)cccc21)C(=O)O)OCc1ccccc1 (stereo not drawn) [Example 39, 2-(((Benzyloxy)carbonyl)amino)-3-(4-(2-(5,6,7,8-tetrahydro-1,8-naphthyridin-2-yl)ethoxy)-1H-indazol-1-yl)propanoic acid]
210	COc1ccc([C@@H](CC(=O)O)n2ncc3cc(OCCc4ccc5c(n4)NCCC5)ccc32)cn1 [Example 40, (R)-3-(6-Methoxypyridin-3-yl)-3-(5-(2-(5,6,7,8-tetrahydro-1,8-naphthyridin-2-yl)ethoxy)-1H-indazol-1-yl)propanoic acid]
4.4	O=C(O)CC(c1cncc(Cl)c1)n1ncc2cc(OCCc3ccc4c(n3)NCCC4)ccc21 (stereo not drawn) [Example 42, 3-(5-Chloropyridin-3-yl)-3-(5-(2-(5,6,7,8-tetrahydro-1,8-naphthyridin-2-yl)ethoxy)-1H-indazol-1-yl)propanoic acid, TFA]
3.2	O=C(O)CC(c1cc(Cl)cc(Cl)c1)n1ncc2cc(OCCc3ccc4c(n3)NCCC4)ccc21 (stereo not drawn) [Example 43, 3-(3,5-Dichlorophenyl)-3-(5-(2-(5,6,7,8-tetrahydro-1,8-naphthyridin-2-yl)ethoxy)-1H-indazol-1-yl)propanoic acid, TFA]
8.71	COc1ccc(C(CC(=O)O)n2ncc3cc(OCCc4ccc5c(n4)NCCC5)ccc32)cc1F (stereo not drawn) [Example 44, 3-(3-Fluoro-4-methoxyphenyl)-3-(5-(2-(5,6,7,8-tetrahydro-1,8-naphthyridin-2-yl)ethoxy)-1H-indazol-1-yl)propanoic acid, TFA]
2300	O=C(O)CC(C1CC1)n1ncc2cc(OCCc3ccc4c(n3)NCCC4)ccc21 (stereo not drawn) [Example 45, 3-Cyclopropyl-3-(5-(2-(5,6,7,8-tetrahydro-1,8-naphthyridin-2-yl)ethoxy)-1H-indazol-1-yl)propanoic acid, TFA]
330	CCCCCC(CC(=O)O)n1ncc2cc(OCCc3ccc4c(n3)NCCC4)ccc21 (stereo not drawn) [Example 46, 3-(5-(2-(5,6,7,8-Tetrahydro-1,8-naphthyridin-2-yl)ethoxy)-1H-indazol-1-yl)octanoic acid, TFA]
7	O=C(O)CC(c1ccc2c(c1)CCO2)n1ncc2cc(OCCc3ccc4c(n3)NCCC4)ccc21 (stereo not drawn) [Example 47, 3-(2,3-Dihydrobenzofuran-5-yl)-3-(5-(2-(5,6,7,8-tetrahydro-1,8-naphthyridin-2-yl)ethoxy)-1H-indazol-1-yl)propanoic acid, TFA]
33	O=C(O)CC(c1cccs1)n1ncc2cc(OCCc3ccc4c(n3)NCCC4)ccc21 (stereo not drawn) [Example 49, 3-(5-(2-(5,6,7,8-Tetrahydro-1,8-naphthyridin-2-yl)ethoxy)-1H-indazol-1-yl)-3-(thiophen-2-yl)propanoic acid, TFA]
80	O=C(O)CC(c1cccnc1)n1ncc2cc(OCCc3ccc4c(n3)NCCC4)ccc21 (stereo not drawn) [Example 50, 3-(Pyridin-3-yl)-3-(5-(2-(5,6,7,8-tetrahydro-1,8-naphthyridin-2-yl)ethoxy)-1H-indazol-1-yl)propanoic acid, TFA]
2500	O=C(O)CCn1ncc2cc(OCCc3ccc4c(n3)NCCC4)ccc21 [Example 51, 3-(5-(2-(5,6,7,8-Tetrahydro-1,8-naphthyridin-2-yl)ethoxy)-1H-indazol-1-yl)propanoic acid]
150	O=C(O)CC(c1ccc(F)cn1)n1ncc2cc(OCCc3ccc4c(n3)NCCC4)ccc21 (stereo not drawn) [Example 53, 3-(5-Fluoropyridin-2-yl)-3-(5-(2-(5,6,7,8-tetrahydro-1,8-naphthyridin-2-yl)ethoxy)-1H-indazol-1-yl)propanoic acid, TFA]
30	O=C(O)CC(c1ccc2oc3ccccc3c2c1)n1ncc2cc(OCCc3ccc4c(n3)NCCC4)ccc21 (stereo not drawn) [Example 54, 3-(Dibenzo[b,d]furan-2-yl)-3-(5-(2-(5,6,7,8-tetrahydro-1,8-naphthyridin-2-yl)ethoxy)-1H-indazol-1-yl)propanoic acid, TFA]
920	Cc1cc(C)nc(C(CC(=O)O)n2ncc3cc(OCCc4ccc5c(n4)NCCC5)ccc32)n1 (stereo not drawn) [Example 55, 3-(4,6-Dimethylpyrimidin-2-yl)-3-(5-(2-(5,6,7,8-tetrahydro-1,8-naphthyridin-2-yl)ethoxy)-1H-indazol-1-yl)propanoic acid, TFA]
4.1	Cc1nc2cc(C(CC(=O)O)n3ncc4cc(OCCc5ccc6c(n5)NCCC6)ccc43)ccc2s1 (stereo not drawn) [Example 56, 3-(2-Methylbenzo[d]thiazol-5-yl)-3-(5-(2-(5,6,7,8-tetrahydro-1,8-naphthyridin-2-yl)ethoxy)-1H-indazol-1-yl)propanoic acid, TFA]
11	O=C(O)CC(c1ccc(Oc2ccccc2)cc1)n1ncc2cc(OCCc3ccc4c(n3)NCCC4)ccc21 (stereo not drawn) [Example 57, 3-(4-Phenoxyphenyl)-3-(5-(2-(5,6,7,8-tetrahydro-1,8-naphthyridin-2-yl)ethoxy)-1H-indazol-1-yl)propanoic acid, TFA]
